The source of these data is PubChem BioAssay (NCI).

Each structure is given as a SMILES string.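 In this assay, cells in 96-well plates receive the compound at five concentrations for 48 hours. Endpoints are linearly interpolated between the surrounding concentrations. TGI: concentration producing complete growth inhibition.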 Bounds are passed on as bounds.

Some test systems named below: HCC-2998 colon; KM20L2 colon; M19-MEL melanoma; MOLT-4 leukemia; NCI-H460 lung; OVCAR-4 ovarian; SNB-19 CNS; SNB-78 CNS; SW-620 colon; UACC-62 melanoma; COLO 205 colon.
Common to all, as to test: growth of human tumour cells (NCI), 48 h

As to `COC1CCC2C(NS(=O)(=O)c3ccc(C)cc3)CCCC2O1` (stereo not given) (tested in a mixture with another compound), the TGI in the test on HCC-2998 colon was above 34.5 µM; in the test with KM20L2 colon it was above 34.5 µM; in the test with M19-MEL melanoma it was above 34.5 µM; with MOLT-4 leukemia, 20.9 µM; in the test on NCI-H460 lung it was above 34.5 µM; in the test on OVCAR-4 ovarian, above 34.5 µM. Also, the TGI in the test with SNB-19 CNS, in the test on SNB-78 CNS, with SW-620 colon and in the test on UACC-62 melanoma was above 34.5 µM in each case.

Take `CCOC(=O)CN1C(=O)c2cccc3cc([N+](=O)[O-])cc(c23)C1=O`: the TGI in the test with HCC-2998 colon is 14.8 µM; with KM20L2 colon, 26.5 µM; in the test with MOLT-4 leukemia it was 2.45 µM; with NCI-H460 lung it was 17.3 µM; in the test on OVCAR-4 ovarian, 3.27 µM; in the test with SNB-19 CNS it was 32.3 µM. Also, the results for the TGI in the test on SNB-78 CNS, with SW-620 colon and in the test with UACC-62 melanoma were 19.3 µM, 2.99 µM and 5.2 µM, respectively.

For the molecule `Cc1cc(C)nc(NS(=O)(=O)c2ccc(NC(=O)c3ccc(Cl)c4c(Nc5ccc(S(=O)(=O)Nc6nc(C)cc(C)n6)cc5)c5ccccc5nc34)cc2)n1`, the TGI in the test on COLO 205 colon was above 100 µM; with KM20L2 colon it was 69.9 µM; in the test on M19-MEL melanoma, 8.28 µM; in the test on MOLT-4 leukemia, above 100 µM; in the test with NCI-H460 lung, above 100 µM; in the test on OVCAR-4 ovarian it was 48.1 µM. The TGI with SNB-19 CNS, in the test with SNB-78 CNS and in the test with SW-620 colon was above 100 µM in each case.

Turning to `O=C1/C(=C/c2ccccc2)CN(C(=O)C(Cl)(Cl)Cl)C/C1=C\c1ccccc1`, the TGI with COLO 205 colon amounted to 4.69 µM; in the test on KM20L2 colon, 4.67 µM; in the test on M19-MEL melanoma, 2.68 µM; with MOLT-4 leukemia it was 5.77 µM; in the test on NCI-H460 lung, 4.17 µM; in the test with OVCAR-4 ovarian, 3.42 µM. Moreover, the TGI with SNB-19 CNS was found to be 10.7 µM; in the test on SNB-78 CNS, 7.54 µM; with SW-620 colon, 1.82 µM; in the test with UACC-62 melanoma it was 3.43 µM.

Consider `CN(C)C(=N)c1ccccc1`, for which the TGI in the test on COLO 205 colon, with HCC-2998 colon, in the test on KM20L2 colon, in the test on M19-MEL melanoma, with NCI-H460 lung and with OVCAR-4 ovarian was above 100 µM each time. Moreover, the TGI with SNB-19 CNS, in the test on SNB-78 CNS and in the test on SW-620 colon was above 100 µM each time.

Take `O=C(O)c1ccccc1[Se][Se]c1ccccc1C(=O)O`: the TGI is above 100 µM in the test on COLO 205 colon; above 100 µM in the test with HCC-2998 colon; 68.5 µM in the test on KM20L2 colon; above 100 µM with M19-MEL melanoma; above 100 µM with MOLT-4 leukemia; above 100 µM in the test on NCI-H460 lung. The TGI in the test with SNB-19 CNS was 45 µM; in the test with SW-620 colon, above 100 µM; in the test with UACC-62 melanoma, 82.8 µM.

`O=C(COc1ccc(Br)cc1Br)N1N=C(c2ccc([N+](=O)[O-])o2)CC1(O)c1ccccc1` (stereo not given): the TGI in the test with COLO 205 colon was 7.05 µM; with HCC-2998 colon it was 23.1 µM; in the test with KM20L2 colon, 58.8 µM; in the test with MOLT-4 leukemia, 8.98 µM; in the test with NCI-H460 lung, 20.4 µM; with OVCAR-4 ovarian it was above 100 µM. Moreover, the TGI is 68.2 µM in the test with SNB-19 CNS, above 100 µM with SNB-78 CNS, 33.3 µM with SW-620 colon and 18.7 µM in the test on UACC-62 melanoma.

Consider `COc1ccc2c3c1C(=O)CCCC3CO2` (stereo not given), for which the TGI in the test with COLO 205 colon, in the test with HCC-2998 colon, in the test on M19-MEL melanoma, in the test with MOLT-4 leukemia, in the test with NCI-H460 lung and with OVCAR-4 ovarian was above 100 µM in each case. Further, the TGI in the test with SNB-19 CNS, in the test with SNB-78 CNS, in the test with SW-620 colon and in the test with UACC-62 melanoma was above 100 µM in each case.

As for `C=C1C(=O)C23CC1CCC2C12CO[C@@H]4OCC(C)(CC[C@@H]1OC3=O)C42` (stereo not given in full), the TGI amounted to 4.34 µM in the test with COLO 205 colon; 30.9 µM in the test on HCC-2998 colon; 17.5 µM in the test with KM20L2 colon; 19.6 µM in the test with M19-MEL melanoma; 9.7 µM in the test on MOLT-4 leukemia; 17.5 µM in the test on NCI-H460 lung. Moreover, the TGI in the test on SNB-19 CNS came to 20.3 µM; in the test with SNB-78 CNS, 9.57 µM; with SW-620 colon it was 7.04 µM; with UACC-62 melanoma it was 17.3 µM.

In the case of `O=S1(=O)c2ccccc2NC(c2ccc3ccccc3c2)CC1c1ccccc1F` (stereo not given), the TGI in the test with COLO 205 colon, in the test on HCC-2998 colon, in the test with KM20L2 colon, in the test on M19-MEL melanoma, in the test on MOLT-4 leukemia and with NCI-H460 lung was above 100 µM throughout. Also, the TGI in the test with OVCAR-4 ovarian, in the test with SNB-19 CNS, in the test on SW-620 colon and in the test on UACC-62 melanoma was above 100 µM each time.

As to `CN1C(=O)C(C)(C)C2(SC(C)(C)C2(C)C)N(C)C1=S` (stereo not given), the TGI in the test with COLO 205 colon, in the test on HCC-2998 colon, in the test with M19-MEL melanoma, with MOLT-4 leukemia, in the test with NCI-H460 lung and in the test on OVCAR-4 ovarian was above 100 µM each time. Further, the TGI with SNB-19 CNS, with SNB-78 CNS, in the test on SW-620 colon and in the test with UACC-62 melanoma was above 100 µM throughout.

For the molecule `COC1(OC)CCC2C1C1CCC(OC)(OC)C21` (stereo not given), the TGI in the test with COLO 205 colon, with HCC-2998 colon, in the test on KM20L2 colon, in the test with M19-MEL melanoma, in the test with MOLT-4 leukemia and in the test on OVCAR-4 ovarian was above 50 µM in each case. The TGI in the test with SNB-19 CNS, in the test with SNB-78 CNS, in the test on SW-620 colon and in the test with UACC-62 melanoma was above 50 µM in each case.

Regarding `N#CCCN(CCC#N)c1ccc(/C=C2\N=C(c3cc([N+](=O)[O-])ccc3Cl)OC2=O)cc1`, the TGI in the test on HCC-2998 colon is 52.6 µM; in the test on KM20L2 colon, above 100 µM; with M19-MEL melanoma it was 45 µM; in the test on MOLT-4 leukemia, 57.7 µM; in the test on NCI-H460 lung it was above 100 µM; in the test on OVCAR-4 ovarian, 78.6 µM. In addition, the TGI in the test with SNB-19 CNS, with SW-620 colon and in the test with UACC-62 melanoma was above 100 µM throughout.
